Measurements as given in ChEMBL document CHEMBL1140215, “Discovery of sodium R-(+)-4-{2-[5-(2-fluoro-3-methoxyphenyl)-3-(2-fluoro-6-[trifluoromethyl]benzyl)-4-methyl-2,6-dioxo-3,6-dihydro-2H-pyrimidin-1-yl]-1-phenylethylamino}butyrate (elagolix), a potent and orally available nonpeptide antagonist of the human gonadotropin-releasing hormone receptor” (J Med Chem, 2008).
Activity calls are given as the source filed them. The calls are words filed in the database; no cut-off is given here.

Assays:
[1] = target: T1, Gonadotropin-releasing hormone receptor (Homo sapiens, UniProt P30968); experiment: Displacement of [125I-Tyr5,DLeu6,NMeLeu7,Pro9-NEt-]GnRH from human GnRH receptor expressed in HEK293 cells by liquid scintillation counting; assay type: cell-based
T1 sequence (P30968 whole entry): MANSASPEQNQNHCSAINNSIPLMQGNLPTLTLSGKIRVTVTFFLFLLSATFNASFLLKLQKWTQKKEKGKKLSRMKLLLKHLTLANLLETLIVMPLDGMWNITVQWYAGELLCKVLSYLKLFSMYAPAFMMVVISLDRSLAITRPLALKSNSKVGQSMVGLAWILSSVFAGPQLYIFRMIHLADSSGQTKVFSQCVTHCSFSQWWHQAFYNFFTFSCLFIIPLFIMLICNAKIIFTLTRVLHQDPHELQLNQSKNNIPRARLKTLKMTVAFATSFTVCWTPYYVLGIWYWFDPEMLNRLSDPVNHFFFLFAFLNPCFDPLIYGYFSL

[2] = target: T1, Gonadotropin-releasing hormone receptor; experiment: Antagonist activity at human GnRH receptor expressed in RBL1 cells assessed as inhibition of GnRH-stimulated inositol phosphate production; assay type: functional, cell-based, RBL-1
Cytochrome P450 3A4 = Cytochrome P450 3A4 (Homo sapiens, UniProt P08684); experiment: Inhibition of CYP3A4; assay type: ADME
Cytochrome P450 3A4, sequence (P08684 whole entry): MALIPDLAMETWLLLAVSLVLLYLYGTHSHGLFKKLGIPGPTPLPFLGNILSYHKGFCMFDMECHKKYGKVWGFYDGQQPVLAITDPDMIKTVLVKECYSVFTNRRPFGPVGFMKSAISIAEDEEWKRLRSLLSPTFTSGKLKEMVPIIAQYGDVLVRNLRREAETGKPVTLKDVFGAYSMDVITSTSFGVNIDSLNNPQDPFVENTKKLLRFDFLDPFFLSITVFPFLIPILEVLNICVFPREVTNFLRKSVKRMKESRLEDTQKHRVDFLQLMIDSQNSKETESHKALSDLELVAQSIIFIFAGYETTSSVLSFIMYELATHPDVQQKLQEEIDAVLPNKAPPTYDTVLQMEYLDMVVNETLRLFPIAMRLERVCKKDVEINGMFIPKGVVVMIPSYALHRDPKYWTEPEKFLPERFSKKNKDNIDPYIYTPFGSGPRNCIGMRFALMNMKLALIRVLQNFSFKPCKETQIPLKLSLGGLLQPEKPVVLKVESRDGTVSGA

[3] = target: T2, Gonadotropin-releasing hormone receptor (Rattus norvegicus, UniProt P30969); experiment: Displacement of [125I-Tyr5,DLeu6,NMeLeu7,Pro9-NEt-]GnRH from rat GnRH receptor expressed in CHO cells by liquid scintillation counting; assay type: cell-based
T2 sequence (P30969 whole entry): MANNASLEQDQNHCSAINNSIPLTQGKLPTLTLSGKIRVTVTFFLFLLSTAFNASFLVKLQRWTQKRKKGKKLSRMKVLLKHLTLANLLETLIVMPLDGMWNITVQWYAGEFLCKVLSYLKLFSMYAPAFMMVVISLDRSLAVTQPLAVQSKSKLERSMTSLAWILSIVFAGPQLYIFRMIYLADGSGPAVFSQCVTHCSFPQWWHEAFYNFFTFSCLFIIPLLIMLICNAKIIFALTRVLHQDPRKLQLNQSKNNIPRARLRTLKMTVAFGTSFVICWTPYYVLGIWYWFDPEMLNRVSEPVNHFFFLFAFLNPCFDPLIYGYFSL

[4] = Apparent permeability across human Caco-2 cell membrane; assay type: ADME, cell-based
Caco-2 [5] = experiment: Ratio of permeability from apical to basolateral side over basolateral to apical side in human Caco-2 cells; assay type: ADME, cell-based
[6] = Lipophilicity, log D of the compound; assay type: physicochemical; conditions: octanol/water
[7] = Half life in rat at 3 mg/kg, iv; assay type: ADME, organism-based; set-up: dose 3 mg/kg, route intravenous; conditions: in vivo
[8] = Volume of distribution in rat at 3 mg/kg, iv; assay type: ADME, organism-based; set-up: dose 3 mg/kg, route intravenous; conditions: in vivo
[9] = Cmax in rat at 3 mg/kg, iv; assay type: ADME, organism-based; set-up: dose 3 mg/kg, route intravenous; conditions: in vivo
[10] = Tmax in rat at 3 mg/kg, iv; assay type: ADME, organism-based; set-up: dose 3 mg/kg, route intravenous; conditions: in vivo
Rattus norvegicus = experiment: (§1) AUC in rat at 3 mg/kg, iv; assay type: ADME, organism-based, Plasma; set-up: dose 3 mg/kg, route intravenous; conditions: in vivo
[11] = Bioavailability in rat at 3 mg/kg, iv; assay type: ADME, organism-based; conditions: in vivo
[12] = Cmax in rat at 10 mg/kg, iv and 10 mg/kg, po; assay type: ADME, organism-based; conditions: in vivo
[13] = Tmax in rat at 10 mg/kg, iv and 10 mg/kg, po; assay type: ADME, organism-based; conditions: in vivo
[14] = AUC in rat at 10 mg/kg, iv and 10 mg/kg, po; assay type: ADME, organism-based; conditions: plasma
Cynomolgus monkey [15] = experiment: Suppression of circulating plasma LH levels in cynomolgus monkey at 30 mg/kg, po after 4 to 8 hrs; assay type: functional, Macaca fascicularis
[16] = Half life in rat at 10 mg/kg, iv and 10 mg/kg, po; assay type: ADME, organism-based; conditions: in vivo
[17] = Plasma clearance in rat at 10 mg/kg, iv and 10 mg/kg, po; assay type: ADME, organism-based
[18] = Volume of distribution in rat at 10 mg/kg, iv and 10 mg/kg, po; assay type: ADME, organism-based; conditions: in vivo
[19] = Oral bioavailability in rat at 10 mg/kg, iv and 10 mg/kg, po; assay type: ADME, organism-based; conditions: in vivo
[20] = Plasma clearance in rat at 3 mg/kg, iv; assay type: ADME, organism-based; set-up: dose 3 mg/kg, route intravenous
[21] = as §1; assay type: ADME, organism-based, Plasma; set-up: dose 3 mg/kg, route intravenous; conditions: plasma
Caco-2 [22] = experiment: Ratio of permeability from apical to basolateral side over basolateral to apical side in human Caco-2 cells at 1 mM; assay type: ADME, cell-based; conditions: caco-2, 1000 µM
Cynomolgus monkey [23] = experiment: Suppression of circulating plasma LH levels in cynomolgus monkey at 30 mg/kg, po after 8 hrs; assay type: functional, Macaca fascicularis
[24] = target: T3, Gonadotropin-releasing hormone receptor (Macaca mulatta, UniProt Q8SPZ1); experiment: Displacement of [125I-Tyr5,DLeu6,NMeLeu7,Pro9-NEt-]GnRH from monkey GnRH receptor expressed in CHO cells by liquid scintillation counting; assay type: cell-based
T3 sequence (Q8SPZ1 whole entry): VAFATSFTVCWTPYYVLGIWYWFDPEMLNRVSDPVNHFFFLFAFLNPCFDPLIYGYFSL

Mast cell = experiment: Induction of histamine release in rat peritoneal mast cells; assay type: functional, cell-based
[25] = Half life in mouse; assay type: ADME, organism-based; conditions: in vivo
[26] = Plasma clearance in mouse; assay type: ADME, organism-based
[27] = Volume of distribution in mouse; assay type: ADME, organism-based; conditions: in vivo
[28] = Cmax in mouse; assay type: ADME, organism-based; conditions: in vivo
[29] = Tmax in mouse; assay type: ADME, organism-based; conditions: in vivo
[30] = AUC in mouse; assay type: ADME, organism-based; conditions: plasma
[31] = Oral bioavailability in mouse; assay type: ADME, organism-based; conditions: in vivo
[32] = Half life in rhesus monkey; assay type: ADME, organism-based, Macaca mulatta; conditions: in vivo
[33] = Plasma clearance in rhesus monkey; assay type: ADME, organism-based, Macaca mulatta
[34] = Volume of distribution in rhesus monkey; assay type: ADME, organism-based, Macaca mulatta; conditions: in vivo
[35] = Cmax in rhesus monkey; assay type: ADME, organism-based, Macaca mulatta; conditions: in vivo
[36] = Tmax in rhesus monkey; assay type: ADME, organism-based, Macaca mulatta; conditions: in vivo
[37] = AUC in rhesus monkey; assay type: ADME, organism-based, Macaca mulatta; conditions: plasma
[38] = Oral bioavailability in rhesus monkey; assay type: ADME, organism-based, Macaca mulatta; conditions: in vivo
[39] = Half life in Beagle dog at 50 mg/kg, po; assay type: ADME, organism-based, Canis lupus familiaris; set-up: dose 50 mg/kg, route oral; conditions: in vivo
[40] = Plasma clearance in Beagle dog at 50 mg/kg, po; assay type: ADME, organism-based, Canis lupus familiaris; set-up: dose 50 mg/kg, route oral
Canis familiaris = experiment: Volume of distribution in Beagle dog at 50 mg/kg, po; assay type: ADME, organism-based, Canis lupus familiaris; set-up: dose 50 mg/kg, route oral; conditions: in vivo
[41] = Cmax in Beagle dog at 50 mg/kg, po; assay type: ADME, organism-based, Canis lupus familiaris; set-up: dose 50 mg/kg, route oral; conditions: in vivo
[42] = Tmax in Beagle dog at 50 mg/kg, po; assay type: ADME, organism-based, Canis lupus familiaris; set-up: dose 50 mg/kg, route oral; conditions: in vivo
[43] = AUC in Beagle dog at 50 mg/kg, po; assay type: ADME, organism-based, Canis lupus familiaris; set-up: dose 50 mg/kg, route oral; conditions: plasma
[44] = Bioavailability in Beagle dog at 50 mg/kg; assay type: ADME, organism-based, Canis lupus familiaris; conditions: in vivo

## COc1cccc(-c2c(C)n(Cc3c(F)cccc3F)c(=O)n(C[C@H](NCCCC(=O)O)c3ccccc3)c2=O)c1F
[1]
  Ki: 0.0021 µM
[2]
  IC50: 0.027 µM
Cytochrome P450 3A4
  IC50: 135 µM
[3]
  Ki: > 10 µM
[4]
  Papp: 0.4 ×10⁻⁶ cm/s
Caco-2 [5]
  Ratio: 51
[6]
  logD: 0.2
[7]
  half-life: 4.5 h
[8]
  Vd: 8.5 L/kg
[9]
  Cmax: 25 ng/mL
[10]
  Tmax: 0.8 h
Rattus norvegicus
  AUC: 81 ng·h/mL
[11]
  bioavailability: 1.1%

## COc1cccc(-c2c(C)n(Cc3c(F)cccc3Cl)c(=O)n(C[C@H](NCCCC(=O)O)c3ccccc3)c2=O)c1F
[1]
  Ki: 0.0011 µM
[2]
  IC50: 0.0032 µM
Cytochrome P450 3A4
  IC50: 11 µM

## COc1cccc(-c2c(C)n(Cc3c(F)cccc3C(F)(F)F)c(=O)n(C[C@H](N)c3ccccc3)c2=O)c1F
[2]
  IC50: 0.0005 µM
Cytochrome P450 3A4
  IC50: 0.23 µM
[3]
  Ki: 1.2 µM
[12]
  Cmax: 15 ng/mL
[13]
  Tmax: 1.2 h
[14]
  AUC: 46 ng·h/mL

## COC(=O)CCCN[C@@H](Cn1c(=O)c(-c2cccc(OC)c2F)c(C)n(Cc2c(F)cccc2C(F)(F)F)c1=O)c1ccccc1
[1]
  Ki: 0.0042 µM
Cytochrome P450 3A4
  IC50: 0.44 µM

## COc1cccc(-c2c(C)n(Cc3c(F)cccc3F)c(=O)n(C[C@H](N)c3ccccc3)c2=O)c1F
Cynomolgus monkey [15]
  Activity: 50%
Cytochrome P450 3A4
  IC50: 0.7 µM
[4]
  Papp: 17.6 ×10⁻⁶ cm/s
[6]
  logD: 1.8
[16]
  half-life: 1.3 h
[17]
  clearance: 64.7 mL/min/kg
[18]
  Vd: 7.1 L/kg
[12]
  Cmax: 24.2 ng/mL
[13]
  Tmax: 1 h
[14]
  AUC: 106 ng·h/mL
[19]
  bioavailability: 3.5%

## COc1cccc(-c2c(C)n(Cc3c(F)cccc3C(F)(F)F)c(=O)n(C[C@H](NCC(=O)O)c3ccccc3)c2=O)c1F
[1]
  Ki: 0.071 µM

## COc1cccc(-c2c(C)n(Cc3c(F)cccc3C(F)(F)F)c(=O)n(C[C@@H](c3ccccc3)N(C)CCCC(=O)O)c2=O)c1F
[1]
  Ki: 0.0037 µM
Cytochrome P450 3A4
  IC50: 69 µM
[4]
  Papp: 7.5 ×10⁻⁶ cm/s
Caco-2 [5]
  Ratio: 4
[7]
  half-life: 2.6 h
[20]
  clearance: 26.4 mL/min/kg
[8]
  Vd: 3.2 L/kg
[9]
  Cmax: 592 ng/mL
[10]
  Tmax: 0.25 h
[21]
  AUC: 385 ng·h/mL
[11]
  bioavailability: 3.7%

## COc1cccc(-c2c(C)n(Cc3c(F)cccc3C(F)(F)F)c(=O)n(C[C@H](NCCC(=O)O)c3ccccc3)c2=O)c1F
[1]
  Ki: 0.012 µM
Cytochrome P450 3A4
  IC50: 69 µM

## COc1cccc(-c2c(C)n(Cc3c(F)cccc3C(F)(F)F)c(=O)n(C[C@H](NCCCC(=O)[O-])c3ccccc3)c2=O)c1F.[Na+] [ELAGOLIX SODIUM]
Caco-2 [22]
  Ratio: 1.3
Cynomolgus monkey [23]
  Activity: 75%
[1]
  Ki: 0.0009 µM
[2]
  IC50: 0.0015 µM
Cytochrome P450 3A4
  IC50: 56 µM
[3]
  Ki: 4.4 µM
[24]
  Ki: 0.0033 µM
Mast cell
  Activity: inactive
[4]
  Papp: 2.8 ×10⁻⁶ cm/s
Caco-2 [5]
  Ratio: 9.2
[6]
  logD: 2
[7]
  half-life: 0.9 h
[20]
  clearance: 33.3 mL/min/kg
[8]
  Vd: 2.6 L/kg
[9]
  Cmax: 338 ng/mL
[10]
  Tmax: 0.25 h
[21]
  AUC: 290 ng·h/mL
[11]
  bioavailability: 5.8%
[25]
  half-life: 0.3 h
[26]
  clearance: 50 mL/min/kg
[27]
  Vd: 1.4 L/kg
[28]
  Cmax: 741 ng/mL
[29]
  Tmax: 0.25 h
[30]
  AUC: 326 ng·h/mL
[31]
  bioavailability: 10%
[32]
  half-life: 1.1 h
[33]
  clearance: 25.7 mL/min/kg
[34]
  Vd: 2.5 L/kg
[35]
  Cmax: 518 ng/mL
[36]
  Tmax: 0.69 h
[37]
  AUC: 699 ng·h/mL
[38]
  bioavailability: 11%
[39]
  half-life: 2.8 h
[40]
  CL/F: 14.5 mL/min/kg
Canis familiaris
  Vd: 0.92 L/kg
[41]
  Cmax: 13900 ng/mL
[42]
  Tmax: 2 h
[43]
  AUC: 80700 ng·h/mL
[44]
  bioavailability: 100%

## COc1cccc(-c2c(C)n(Cc3c(F)cccc3C(F)(F)F)c(=O)n(C[C@H](NCCCCC(=O)O)c3ccccc3)c2=O)c1F
[1]
  Ki: 0.0076 µM
Cytochrome P450 3A4
  IC50: 29 µM
